{
  "source": "patent US9708638B1",
  "about": "“Protease assay method using site-specific fluorescence dye labeled protein as substrate” (EZBiolab, priority 2014, dated 2017)",
  "assay_type_in_all_cases": "biochemical",
  "key": {"[1]": {"tested_on": "ADAM 17", "assay": "Fluorescence polarization assay of cleavage of N-terminal FITC labeled pro-TNF-α by Adam 17", "conditions": "inhibitor at final concentration 10 uM; FIG. 3 Trace B", "procedure": "(§1) Cleavage of N-terminal FITC labeled pro-TNF-α was performed by a fluorescence polarization assay. The assay was performed with a SpectraMax fluorescence plate reader in 96-well format. In a typical assay, 1 μM substrate protein was preincubated at 37° C. for 20 minutes. The reaction was initiated by addition of Adam 17 to the substrate solution. The final concentration of Adam 17 was 48 nM. The total reaction volume was […]. The reaction buffer was 50 mM Tris-HCl, pH 7.5, 2.5 μM ZnCl2, 0.005% Brij-35. In inhibition assays, the inhibitor was preincubated with its target protein for 30 minutes before reaction was initiated.\n(§2) The concentration of product was calculated according to equation (1): [P]=(F[S]−Fs[S])/(Fp−Fs); where [P] is the concentration of product, F is the experimental recorded fluorescence polarization value, [S] is the total concentration of substrate and Fs and Fp are fluorescence polarization values of substrate and product, respectively. Fp is determined from a synthetic peptide with an identical sequence to the N-terminal fragment of the cleavage products.\n(§3) To initiate the cleavage reaction, 1 ul ADAM 17 (0.1 mg/ml) stock solution may be added to 100 ul FITC-[pro-TNF-α] in 20 mM Tris-HCL, PH 8.5. The final concentration of FITC-[pro-TNF-α] is about 1 uM."}, "[2]": {"target": "ADAM 17 (Homo sapiens, UniProt P01375)", "sequence (P01375 with tags, fused parts or gaps)": "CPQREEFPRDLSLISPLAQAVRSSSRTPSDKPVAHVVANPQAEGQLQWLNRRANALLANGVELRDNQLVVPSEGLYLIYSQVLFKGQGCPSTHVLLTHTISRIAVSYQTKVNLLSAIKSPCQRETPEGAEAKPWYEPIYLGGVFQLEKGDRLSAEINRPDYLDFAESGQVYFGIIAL", "assay": "Fluorescence polarization assay of cleavage of N-terminal FITC labeled pro-TNF-α by Adam 17", "procedure": "as §1, §2, §3"}, "[3]": {"target": "ADAM 17 (Homo sapiens, UniProt P78536)", "sequence (P78536 215-824)": "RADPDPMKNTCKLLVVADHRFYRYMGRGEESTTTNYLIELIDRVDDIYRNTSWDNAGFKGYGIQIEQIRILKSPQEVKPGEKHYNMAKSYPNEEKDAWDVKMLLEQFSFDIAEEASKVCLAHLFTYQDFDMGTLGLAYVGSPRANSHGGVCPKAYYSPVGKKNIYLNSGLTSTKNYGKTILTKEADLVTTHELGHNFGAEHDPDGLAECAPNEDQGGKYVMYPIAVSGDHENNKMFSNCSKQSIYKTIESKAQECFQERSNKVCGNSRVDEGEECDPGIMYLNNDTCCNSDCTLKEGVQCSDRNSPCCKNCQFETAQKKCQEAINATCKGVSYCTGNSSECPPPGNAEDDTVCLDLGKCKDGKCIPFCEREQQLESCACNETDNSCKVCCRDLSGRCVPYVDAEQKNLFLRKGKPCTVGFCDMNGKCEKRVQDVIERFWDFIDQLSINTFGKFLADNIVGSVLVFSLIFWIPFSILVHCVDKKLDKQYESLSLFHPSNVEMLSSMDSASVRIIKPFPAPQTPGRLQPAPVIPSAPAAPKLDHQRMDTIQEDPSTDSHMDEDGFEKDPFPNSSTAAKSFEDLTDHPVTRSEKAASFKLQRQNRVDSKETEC", "assay": "Cleavage of peptide substrate by Adam 17 (HPLC)", "conditions": "HPLC results", "procedure": "Cleavage of peptide substrates: Two peptide substrates were used in this study. PS1 is Mca-PLAQAV-Dpa-RSSSR-NH2 (22), a fluorescence resonance energy transfer based substrate, the activity was measured by fluorescence intensity change upon cleavage. PS2 may be the non-fluorescence version of PS1. For PS1, in a typical assay, 10 μM substrate was preincubated at 37° C. for 20 minutes. The reaction was initiated by addition of Adam 17 to the substrate solution at the final concentration of 16 nM. The total reaction volume may be 100 μl. The reaction buffer may be 50 mM Tris-HCl, pH 9.0, 2.5 μM ZnCl2, 0.005% Brij-35. In inhibition assays, inhibitor was preincubated with peptide substrate for 30 minutes. For PS2, reaction conditions were identical to PS1.\nReferring to FIGS. 13 and 14, TNF-α Inhibitor is a small molecule that blocks interaction of TNF-α with its receptor by binding to TNF-α. This compound may affect the activity of Adam 17 to convert pro-TNF-α to TNF-α. Referring to FIG. 13, it is shown that at a concentration of about 200 μM, TNF-α inhibitor reduces the reaction rate by about 40%, which is validated by the electrophoresis assay results shown in FIG. 14. […] Based on the established direct binding between the compound and TNFα, it is believed that the inhibition effect is caused by the interaction of the compound to pro-TNFα."}, "[4]": {"target": "T1, BACE (Homo sapiens, UniProt P56817)", "T1 construct": "made in house; host or cells: E. coli", "T1 sequence (P56817 46-501)": "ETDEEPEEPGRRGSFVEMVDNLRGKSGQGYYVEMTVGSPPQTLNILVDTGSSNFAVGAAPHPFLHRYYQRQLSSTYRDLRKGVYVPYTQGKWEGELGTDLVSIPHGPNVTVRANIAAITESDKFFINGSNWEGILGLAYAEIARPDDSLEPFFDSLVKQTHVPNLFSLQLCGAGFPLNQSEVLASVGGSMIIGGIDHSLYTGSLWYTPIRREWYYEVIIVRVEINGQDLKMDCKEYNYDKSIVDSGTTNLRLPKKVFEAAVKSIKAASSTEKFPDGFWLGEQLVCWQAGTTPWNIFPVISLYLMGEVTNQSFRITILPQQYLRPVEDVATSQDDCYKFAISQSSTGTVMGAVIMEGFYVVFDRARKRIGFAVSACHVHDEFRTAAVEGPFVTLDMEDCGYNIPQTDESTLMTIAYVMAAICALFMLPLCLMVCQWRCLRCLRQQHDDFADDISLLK", "assay": "Fluorescence polarization assay of cleavage of APP365-699-[5-TAMRA] by BACE", "conditions": "inhibitor included in the cleavage reaction; FIG. 10 Trace B", "description": "Referring to FIGS. 9-11, in this example Beta-secretase (BACE) is one of the two proteases that cleave amyloid precursor protein (APP) to produce amyloid peptide 1-42. Human APP is a 733 residue protein. Full length of APP is consisted of several domains. BACE cleaves APP between residue 671 and 672. In this example, a fluorescence dye is specifically conjugated to the C-terminal end of APP365-699 that contains two independent folded domains. Gene encoding APP365-699 is fused to the N-terminal end of intein. After MESNA mediated self cleavage between APP365-699 and intein, a thioester group, is added to the C-terminal end of APP365-699. A fluorescence dye conjugated small peptide, CysGlySerLys-[5-TAMRA], is then ligated to the C-terminal end of APP365-699 to produce fluorescent dye labeled APP365-699:\nAs a result, fluorescence polarization of 5-TAMRA reduces. […] It proves that APP365-699-[5-TAMRA] may be used as a substrate for BACE activity assay by recording the fluorescence polarization. […] Thus, APP365-699-[5-TAMRA] may be used as a substrate for BACE activity assay by recording the fluorescence polarization and the assay may be used to identify its inhibitors."}, "[5]": {"target": "T2, Renin (Homo sapiens, UniProt P00797)", "T2 sequence (P00797 67-406)": "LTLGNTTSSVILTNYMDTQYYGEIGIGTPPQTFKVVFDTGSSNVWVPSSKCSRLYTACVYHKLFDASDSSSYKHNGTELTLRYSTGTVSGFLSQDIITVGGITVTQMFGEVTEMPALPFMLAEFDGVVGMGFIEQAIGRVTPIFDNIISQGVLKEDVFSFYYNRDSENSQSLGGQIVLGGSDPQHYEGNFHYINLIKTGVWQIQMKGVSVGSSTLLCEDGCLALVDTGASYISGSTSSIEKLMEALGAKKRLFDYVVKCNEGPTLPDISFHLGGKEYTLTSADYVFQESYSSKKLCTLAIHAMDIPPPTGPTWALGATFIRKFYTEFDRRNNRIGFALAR", "assay": "Fluorescence polarization assay of cleavage of FITC-angiotensinogen by Renin", "conditions": "inhibitor at final concentration 10 uM", "procedure": "Cleavage of FITC-angiotensinogen by Renin produces two products: FITC-AAGCDRVYIHPFHL (FITC-angiotensin) and angiotensinogen protein. To initiate the cleavage reaction, 1 ul Renin (0.1 mg/ml) stock solution may be added to 100 ul FITC-angiotensinogen in 20 mM Tris-HCL, PH 8.5. The final concentration of FITC-angiotensingen may be about 1 uM. […] This confirms the specific cleavage of FITC-angiotensinogen by Renin.\nAn alternative strategy to label the full length angtensinogen is to delete 16 residues from the N-terminus of angtensinogen. This shorted angtensinogen has a Cys at its N-terminal end and is fused to sumo. Using the same protocol as described above, this fusion protein is expressed, purified and cleaved by Sumo protease to produce the N-terminal 16 residue deleted angtensinogen. Referring to FIG. 7, ligation of the N-terminal 16 residue deleted angtensinogen to the FITC-DRVYIHPFHLVIHNEST-thioester, a slightly different version of FITC-angiotensinogen is produced. […] Cleavage of this FITC-angiotensinogen by Renin may be measured by recording fluorescence polarization signal as a function of time, as shown in FIG. 8. […] This proves that the FITC-angiotensinogen may be used as a substrate for Renin activity assay by recording the fluorescence polarization and the assay may be used to identify its inhibitors."}},
  "data": [
    {"compound": "CNC(=O)[C@H](Cc1c[nH]c2ccccc12)NC(=O)[C@@H](CC(=O)NO)CC(C)C", "note": "[N-[(2R)-2-(Hydroxamidocarbonylmethyl)-4-methylpentanoyl]-L-tryptophan methylamide]", "values": [
      {"measurement": "fluorescence polarization change during cleavage of FITC-[pro-TNF-α] by ADAM 17", "setting": "[1]", "value": "little change"}
    ]},
    {"compound": "Cc1cc2occ(CN(C)CCN(C)Cc3cn(-c4cccc(C(F)(F)F)c4)c4ccccc34)c(=O)c2cc1C", "note": "[TNF-α inhibitor, 6,7-Dimethyl-3-((methyl-(2-(methyl-(1-(3-trifluoromethyl-phenyl)-1H-indol-3-ylmethyl)-amino)-ethyl)-amino)-methyl)-chromen-4-one]", "values": [
      {"measurement": "cleavage rate of FITC-(pro-TNF-α) by ADAM 17", "setting": "[2]; 200 uM compound pre-incubated with FITC-(pro-TNF-α) for 30 minutes", "value": "reduced"},
      {"measurement": "reduction of the reaction rate (conversion of pro-TNF-α to TNF-α by Adam 17)", "setting": "[2]; inhibitor at about 200 μM, FIG. 13", "value": "about 40%"},
      {"measurement": "cleavage activity of Adam 17 to the peptide substrate", "setting": "[3]", "value": "not affected"}
    ]},
    {"compound": "KTEEISEVN-Sta-VAEF", "values": [
      {"measurement": "fluorescence polarization during cleavage of APP365-699-[5-TAMRA] by BACE", "setting": "[4]", "value": "remains unchanged"}
    ]},
    {"compound": "RRPFH-Sta-IHK", "values": [
      {"measurement": "fluorescence polarization change during cleavage of FITC-angiotensinogen by Renin", "setting": "[5]; FITC-angiotensinogen made from N-terminal 16 residue deleted angiotensinogen, FIG. 8 Trace B", "value": "little change"},
      {"measurement": "fluorescence polarization change during cleavage of FITC-angiotensinogen by Renin", "setting": "[5]; full length FITC-angiotensinogen, FIG. 6 Trace B", "value": "little change"}
    ]}
  ]
}
